Measured values from ChEMBL document CHEMBL1201862, “PubChem BioAssay data set” (2004).
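Assay format: 96-well plates, 48-hour exposure. Abbreviation: GI50, concentration required for 50% inhibition of growth.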 Active and inactive are the calls of the source. No stated cut-off is given here; in the data, active = GI50 up to about 1.1 µM and inactive = higher.

Tests used:
Experiment in all cases: NCI anticancer screen, dose series, 48 h
786-0 = test system: 786-0
A498 = test system: A498
A549 = test system: A549
ACHN = test system: ACHN
CAKI-1 = test system: CAKI-1
CCRF-CEM = test system: CCRF-CEM
COLO 205 = test system: COLO 205
DLD-1 = test system: DLD-1
DMS-114 = test system: DMS-114
DMS-273 = test system: DMS-273
HCC 2998 = test system: HCC 2998
HCT-116 = test system: HCT-116
HCT-15 = test system: HCT-15
HL-60 = test system: HL-60
HOP-18 = test system: HOP-18
HOP-62 = test system: HOP-62
IGROV-1 = test system: IGROV-1
K562 = test system: K562
KM-20L2 = test system: KM-20L2
KM12 = test system: KM12
LXFL 529 = test system: LXFL 529
M14 = test system: M14
M19-MEL = test system: M19-MEL
MOLT-4 = test system: MOLT-4
Malme-3M = test system: Malme-3M
NCI-H226 = test system: NCI-H226
NCI-H460 = test system: NCI-H460
NCI-H522 = test system: NCI-H522
OVCAR-3 = test system: OVCAR-3
OVCAR-4 = test system: OVCAR-4
OVCAR-8 = test system: OVCAR-8
RPMI-8226 = test system: RPMI-8226
RXF 393 = test system: RXF 393
RXF 631 = test system: RXF 631
SF-268 = test system: SF-268
SF-539 = test system: SF-539
SK-MEL-28 = test system: SK-MEL-28
SK-MEL-2 = test system: SK-MEL-2
SK-MEL-5 = test system: SK-MEL-5
SK-OV-3 = test system: SK-OV-3
SN12C = test system: SN12C
SNB-19 = test system: SNB-19
SNB-75 = test system: SNB-75
SNB-78 = test system: SNB-78
SW-620 = test system: SW-620
TK-10 = test system: TK-10
U-251 = test system: U-251
UACC-257 = test system: UACC-257
UACC-62 = test system: UACC-62
UO-31 = test system: UO-31

## COc1cc2c(c(OC)c1)C1(CC(CC#N)C2)SCCS1 (stereo not given)
786-0
  GI50: > 100 µM (inactive)
A498
  GI50: > 100 µM (inactive)
A549
  GI50: > 100 µM (inactive)
ACHN
  GI50: > 100 µM (inactive)
CAKI-1
  GI50: > 100 µM (inactive)
CCRF-CEM
  GI50: > 100 µM (inactive)
COLO 205
  GI50: > 100 µM (inactive)
DLD-1
  GI50: > 100 µM (inactive)
DMS-114
  GI50: > 100 µM (inactive)
DMS-273
  GI50: > 100 µM (inactive)
HCC 2998
  GI50: > 100 µM (inactive)
HCT-116
  GI50: > 100 µM (inactive)
HCT-15
  GI50: > 100 µM
HL-60
  GI50: > 100 µM (inactive)
HOP-18
  GI50: > 100 µM (inactive)
HOP-62
  GI50: > 100 µM (inactive)
IGROV-1
  GI50: > 100 µM (inactive)
K562
  GI50: > 100 µM (inactive)
KM-20L2
  GI50: > 100 µM (inactive)
KM12
  GI50: > 100 µM (inactive)
LXFL 529
  GI50: > 100 µM (inactive)
M14
  GI50: > 100 µM (inactive)
M19-MEL
  GI50: > 100 µM (inactive)
MOLT-4
  GI50: > 100 µM (inactive)
Malme-3M
  GI50: > 100 µM (inactive)
NCI-H226
  GI50: > 100 µM (inactive)
NCI-H460
  GI50: > 100 µM (inactive)
NCI-H522
  GI50: < 0.01 µM (active)
OVCAR-3
  GI50: > 100 µM (inactive)
OVCAR-4
  GI50: > 100 µM (inactive)
OVCAR-8
  GI50: > 100 µM (inactive)
RPMI-8226
  GI50: > 100 µM (inactive)
RXF 393
  GI50: > 100 µM (inactive)
RXF 631
  GI50: > 100 µM (inactive)
SF-268
  GI50: > 100 µM (inactive)
SF-539
  GI50: > 100 µM (inactive)
SK-MEL-28
  GI50: > 100 µM (inactive)
SK-MEL-2
  GI50: > 100 µM (inactive)
SK-MEL-5
  GI50: 62.2 µM (inactive)
SK-OV-3
  GI50: > 100 µM (inactive)
SN12C
  GI50: > 100 µM (inactive)
SNB-19
  GI50: > 100 µM (inactive)
SNB-75
  GI50: 56.9 µM (inactive)
SNB-78
  GI50: > 100 µM (inactive)
SW-620
  GI50: > 100 µM (inactive)
TK-10
  GI50: > 100 µM (inactive)
U-251
  GI50: > 100 µM (inactive)
UACC-257
  GI50: > 100 µM (inactive)
UACC-62
  GI50: > 100 µM (inactive)
UO-31
  GI50: > 100 µM (inactive)
